Reference: paper PMC2248166, “Quantitative peptide binding motifs for 19 human and mouse MHC class I molecules derived using positional scanning combinatorial peptide libraries” (Immunome Research, 2008)

Legend:
HLA A*3001 = HLA A*3001 (Homo sapiens, UniProt P04439, D140H/D185E/E176W/F33S/G80R/H175R/K168Q/R138E/R41S); assay: biochemical; assay type: binding
HLA A*3201 = HLA A*3201 (Homo sapiens, UniProt P04439, A270S/D101S/D185E/E176V/E277Q/F133L/G103R/G107R/G231S/H175R/I121M/I218V/I322F/K168Q/L105A/L300P/L318F/M331R/P208A/P217A/Q94H/R106L/R138Q/S129P/T104I/T323A/T345S/V100E/V321M/V358M); assay: biochemical; assay type: binding
HLA A*6802 = HLA A*6802 (Homo sapiens, UniProt P04439, A269V/D140Y/D185E/E176V/E277Q/E87N/F33Y/G231S/I121R/I166T/I218V/L180W/L300P/L318F/N151K/P208A/P217A/Q86R/R138H/R169H/S129P/T345S/V36M); assay type: binding
HLA B*0702 = HLA B*0702 (Homo sapiens, UniProt P01889); assay type: binding; conditions: positional scanning combinatorial 9-mer library; normalized to 1.0 for the best residue at each position
HLA B*0801 = HLA B*0801 (Homo sapiens, UniProt P01889, A93T/A95T/D138N/E176V/E187T/K202T/Q94N/R180D/S35A/V36M/Y33D/Y91F); assay: biochemical; assay type: binding
HLA B*1501 = HLA B*1501 (Homo sapiens, UniProt P01889, A329T/A93T/A95T/C349S/D201E/D98Y/E187L/E204Q/E69M/E70A/K202T/N87E/Q94N/R155S/R180W/S121R/S35A/S48A/V306I/V36M/Y140S/Y91S); assay: biochemical; assay type: binding
HLA B*1503 = HLA B*1503 (Homo sapiens, UniProt P01889, A329T/A93T/A95T/C349S/D201E/D98Y/E187L/E204Q/K202T/N87E/Q94N/R155S/R180L/S121R/S35A/V306I/V36M/Y140S/Y91S); assay: biochemical; assay type: binding
HLA B*2705 = HLA B*2705 (Homo sapiens, UniProt P01889, D138H/D201E/E176V/E204Q/G107R/H137Y/K202T/N104T/N87E/Q56L/Q94K/R106L/R155S/R180L/S101D/S121N/S48T/Y140D/Y33H/Y91C); assay type: binding; conditions: positional scanning combinatorial 9-mer library; normalized to 1.0 for the best residue at each position
HLA B*3501 = HLA B*3501 (Homo sapiens, UniProt P01889, A329T/A93T/A95T/C349S/D201E/D98Y/E176V/E187L/E204Q/E69T/I218V/K202T/L119I/Q94N/R155S/R180L/S121R/S35A/S48A/T118I/V127L/V306I/V36M/Y140S/Y91F); assay type: binding
HLA B*5101 = HLA B*5101 (Homo sapiens, UniProt P01889, A329T/A93T/A95T/C349S/D138N/D201E/D98Y/E187L/E204Q/E69T/G107R/I218V/K202T/L105A/L119W/N104I/Q94N/R106L/R155S/R180L/S101N/S121T/S35A/S48A/V306I/V36M/Y195H/Y91F); assay type: binding
HLA B*5301 = HLA B*5301 (Homo sapiens, UniProt P01889, A329T/A93T/A95T/C349S/D201E/D98Y/E176V/E187L/E204Q/E69T/G107R/I218V/K202T/L105A/L119I/N104I/Q94N/R106L/R155S/R180L/S101N/S121R/S35A/S48A/T118I/V127L/V306I/V36M/Y140S/Y91F); assay type: binding
HLA B*5401 = HLA B*5401 (Homo sapiens, UniProt P01889, A329T/C349S/D138N/D201E/E176V/E187T/E204Q/E69G/I76V/K202T/L119W/R155S/R180L/S121T/S35A/S48A/V127L/V306I/V36M/Y140L); assay type: binding
HLA B*5801 = HLA B*5801 (Homo sapiens, UniProt P01889, A329T/C349S/D201E/D98Y/E176V/E187L/E204Q/E69T/G107R/I218V/I90N/K202T/L105A/L119I/N104I/N87E/Q89R/Q94S/R106L/R155S/R180L/R86G/S101N/S121R/S35A/S48A/T118I/V127L/V306I/V36M/Y140S/Y91M); assay type: binding
HLA B*5802 = HLA B*5802 (Homo sapiens, UniProt P01889, A329T/C349S/D201E/D98Y/E176V/E187L/E204Q/E69T/G107R/I218V/I90N/K202T/L105A/N104I/N87E/Q89R/Q94S/R106L/R155S/R180L/R86G/S101N/S121W/S35A/S48A/V127L/V306I/V36M/Y140S/Y91M); assay type: binding
H-2 D^b = H-2 D^b (Mus musculus, UniProt P01899); assay type: binding
Chain of H-2 D^b (P01887 21-119): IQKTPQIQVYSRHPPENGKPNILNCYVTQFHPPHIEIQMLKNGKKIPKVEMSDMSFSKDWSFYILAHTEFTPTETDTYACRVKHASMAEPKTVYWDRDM
Chain of H-2 D^b (P01899 25-362): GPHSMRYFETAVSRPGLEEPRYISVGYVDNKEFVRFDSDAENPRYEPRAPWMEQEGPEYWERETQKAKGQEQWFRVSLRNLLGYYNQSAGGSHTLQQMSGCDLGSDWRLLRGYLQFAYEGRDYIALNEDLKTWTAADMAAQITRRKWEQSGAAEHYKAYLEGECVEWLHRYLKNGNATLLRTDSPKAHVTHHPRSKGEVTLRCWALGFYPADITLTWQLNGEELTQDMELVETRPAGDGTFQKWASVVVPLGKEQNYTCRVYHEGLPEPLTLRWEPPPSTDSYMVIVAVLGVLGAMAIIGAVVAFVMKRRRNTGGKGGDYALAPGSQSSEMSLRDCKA

H-2 D^d = H-2 D^d (Mus musculus, UniProt P01900); assay type: binding
Chain of H-2 D^d (P01900 whole entry, looked up): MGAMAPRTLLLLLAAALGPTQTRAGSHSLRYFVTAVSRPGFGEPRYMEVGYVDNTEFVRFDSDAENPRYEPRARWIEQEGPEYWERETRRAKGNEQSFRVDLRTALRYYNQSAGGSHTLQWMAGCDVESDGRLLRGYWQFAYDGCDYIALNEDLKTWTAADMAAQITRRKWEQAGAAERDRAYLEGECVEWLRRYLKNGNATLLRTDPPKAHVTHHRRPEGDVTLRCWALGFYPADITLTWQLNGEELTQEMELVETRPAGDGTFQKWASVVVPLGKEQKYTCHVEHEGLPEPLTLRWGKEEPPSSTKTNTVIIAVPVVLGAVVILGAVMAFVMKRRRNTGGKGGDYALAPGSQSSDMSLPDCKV

H-2 K^k = H-2 K^k (Mus musculus, UniProt P04223); assay type: binding
Chain of H-2 K^k (P01887 21-119): as the sequence (P01887 21-119) above
Chain of H-2 K^k (P04223 22-369): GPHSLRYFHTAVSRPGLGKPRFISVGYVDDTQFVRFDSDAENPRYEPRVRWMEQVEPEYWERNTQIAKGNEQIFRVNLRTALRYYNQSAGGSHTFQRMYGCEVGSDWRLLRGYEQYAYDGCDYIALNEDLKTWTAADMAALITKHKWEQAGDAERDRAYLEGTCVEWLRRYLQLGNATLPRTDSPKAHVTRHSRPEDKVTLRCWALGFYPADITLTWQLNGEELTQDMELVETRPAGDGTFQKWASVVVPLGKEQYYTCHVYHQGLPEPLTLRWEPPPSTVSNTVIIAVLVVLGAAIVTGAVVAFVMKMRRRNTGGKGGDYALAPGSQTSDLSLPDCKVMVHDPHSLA

HLA A*0201 = HLA A*0201 (Homo sapiens, UniProt P04439, D140Y/D185E/D98H/E176V/E277Q/G131W/G231S/I119V/I121R/I166T/I218V/L300P/L318F/N151K/N90K/P208A/P217A/Q86G/Q94H/R138H/R169H/T345S); conditions: positional scanning combinatorial 9-mer library; normalized to 1.0 for the best residue at each position

Sequence	Normalized average relative binding affinity (ARB), HLA A*3001 (HLA A*3001)	Normalized average relative binding affinity (ARB), HLA A*3201 (HLA A*3201)	Normalized average relative binding affinity (ARB), HLA A*6802 (HLA A*6802)	Normalized average relative binding affinity (ARB), HLA B*0702 (HLA B*0702)	Normalized average relative binding affinity (ARB), HLA B*0801 (HLA B*0801)	Normalized average relative binding affinity (ARB), HLA B*1501 (HLA B*1501)	Normalized average relative binding affinity (ARB), HLA B*1503 (HLA B*1503)	Normalized average relative binding affinity (ARB), HLA B*2705 (HLA B*2705)	Normalized average relative binding affinity (ARB), HLA B*3501 (HLA B*3501)	Normalized average relative binding affinity (ARB), HLA B*5101 (HLA B*5101)	Normalized average relative binding affinity (ARB), HLA B*5301 (HLA B*5301)	Normalized average relative binding affinity (ARB), HLA B*5401 (HLA B*5401)	Normalized average relative binding affinity (ARB), HLA B*5801 (HLA B*5801)	Normalized average relative binding affinity (ARB), HLA B*5802 (HLA B*5802)	Normalized average relative binding affinity (ARB), H-2 Db (H-2 D^b)	Normalized average relative binding affinity (ARB), H-2 Dd (H-2 D^d)	Normalized average relative binding affinity (ARB), H-2 Kk (H-2 K^k)	Normalized average relative binding affinity (ARB), HLA A*0201 (HLA A*0201)
XXKXXXXXX [3064.0049]	0.20	0.092	0.11	0.20	0.96	0.53	0.095	0.21	0.096	0.20	0.019	0.015	0.020	0.081	0.028	0.0033	0.39	0.016
XXLXXXXXX [3064.0050]	0.033	0.58	0.10	0.071	0.21	0.18	0.043	0.55	0.43	0.54	0.59	0.040	0.61	0.59	1.0	0.0040	0.70	0.57
XXMXXXXXX [3064.0051]	0.028	0.94	1.0	1.0	0.90	0.77	0.33	0.87	1.0	1.0	1.0	0.24	0.48	0.57	0.31	0.0095	1.0	1.0
XXNXXXXXX [3064.0052]	0.017	0.76	0.27	0.077	0.11	0.46	0.24	0.23	0.32	0.27	0.22	0.14	0.88	0.098	0.25	0.0028	0.40	0.16
XXPXXXXXX [3064.0053]	0.0036	0.13	0.043	0.014	0.072	0.32	0.058	0.027	0.089	0.42	0.010	0.013	0.042	0.047	0.38	1.0	0.035	0.056
XXQXXXXXX [3064.0054]	0.014	0.45	0.12	0.19	0.062	0.30	0.062	0.12	0.27	0.20	0.13	0.055	0.15	0.098	0.098	0.012	0.42	0.20
